The text below walks through data of ChEMBL document CHEMBL5131418, “Streptooctatins A and B, fusicoccane-type diterpenoids with autophagic activity from Streptomyces sp. KCB17JA11” (Bioorg Med Chem Lett, 2022).

Data set [1] relates to HeLa. The experiment in a line: Cytotoxicity against human HeLa cells assessed as reduction in cell viability up to 100 uM. The format is toxicity, cell-based.
For data set [2], the system named is HeLa. The experiment in a line: Cytotoxicity against human HeLa cells assessed as reduction in cell number at 100 uM. It counts as toxicity, cell-based.
The test system of data set [3] is HeLa. The experiment in a line: Induction of autophagy in human HeLa cells assessed as increase in LC3-II protein expression level at 10 to 50 uM uM incubated for 24 hrs by western blot analysis. It counts as functional, cell-based. The note with it: dose 10-50 µM.
Data set [4] has as its system HeLa. The experiment in a line: Induction of autophagy in human HeLa cells stably expressing EGFP-LC3 assessed as increase in EGFP-LC3 puncta formation at 25 uM incubated for 24 hrs by fluorescence microscopic analysis. It counts as functional, cell-based.

Calls of active or inactive are those of the source. The rule behind the calls is not given here.

For the molecule `CC(C)[C@H]1CC[C@]2(C)C[C@@H]3[C@H](CO)C[C@@H](O)[C@H]3[C@@](C)(O)C/C=C/12`, the Activity result in the data set with HeLa [1] is “Non-Toxic”.

Take `CCCC(=O)[C@@H](C)[C@H]1O[C@@](O)([C@H](C)C(=O)OC[C@@H](CO)[C@H]2CC[C@]3(C)C[C@@H]4[C@H](CO)C[C@@H](O)[C@H]4[C@@](C)(O)C/C=C/23)[C@H](C)C[C@H]1C`: the Activity result with HeLa [2] is listed as “Toxic”; in the data set on HeLa [1], “Non-Toxic”. For the same molecule, the result with HeLa [3] and in the data set on HeLa [4] was Active.

For the molecule `CCC(=O)[C@@H](C)[C@H]1O[C@@](O)([C@H](C)C(=O)OC[C@@H](CO)[C@H]2CC[C@]3(C)C[C@@H]4[C@H](CO)C[C@@H](O)[C@H]4[C@@](C)(O)C/C=C/23)[C@H](C)C[C@H]1C`, the Activity entry in the data set with HeLa [2] is given as “Toxic”; in the data set on HeLa [1], “Non-Toxic”. The result in the data set on HeLa [3] and with HeLa [4] was Active.
